{"source": "patent US6559154B2", "about": "(priority 2000, dated 2003)", "key": {"[1]": {"conditions": "cited from earlier work"}, "[2]": {"system": "rats", "conditions": "rat, in vivo"}}, "data": [{"smiles": "N=C1NC(O)C2C3OC4(O)OC(C(O)C2(N1)C4O)C3(O)CO", "note": "(stereo not shown) [TTX, octahydro-12-(hydroxymethyl)-2-imino-5,9:7,10a-dimethano-10aH-(1,3)dioxocino(6,5-d)-pyrimidine-4,7,10,11, 12-pentol]", "values": [{"measurement": "solubility in acidic aqueous solution", "setting": "[1]", "value": "soluble"}, {"measurement": "solubility in organic solvents", "setting": "[1]", "value": "not soluble"}, {"measurement": "solubility in water", "setting": "[1]", "value": "only slightly soluble"}, {"measurement": "effective dosage", "setting": "[2]", "value": 2.5, "unit": "µg/mg"}]}]}
